# Where “and” joins values, the source holds several entries; their conditions need not be identical. Equal values may be shown once.
# Key:
# [1] = part of regular human diet or excess excreted; cited from earlier work
# [2] = Detection probes on interproximal models of extracted human teeth; conditions: for optical signal of early stage caries lesion with bound probe (photograph): synthetic tooth preparation, FIG. 3-8
# Experimental: Interproximal models of extracted human teeth (molars and premolars) were fabricated using silicon impression materials. Interproximal enamel caries at about […] depth and at about 1.5 mm depth were prepared by using areas of interproximal contact regions. The dental preparations having synthetic caries were assessed by radiographic films (bitewings) and a microscope.
# A cotton ball was saturated with the detection probe, and placed in contact with the region of the interproximal enamel caries. The bound probe was observed by illuminating over a varying set of different wavelengths of excitation light, followed by detecting light of fluorescent emissions. Furthermore, absorbance of the illuminating wavelengths was detected as appropriate for each probe.
# Each tooth preparation having interproximal enamel caries and bound probe was illuminated and photographed.
# (§1) Probes were tested for appropriate concentration, kinetics of binding and retention. Intensity of the illumination light, and the size of the illumination light beam were varied, and data were recorded for each probe. […] The concentration of each probe was varied to determine an optimum concentration for binding during a time period suitable for dental use. Durations of contacting were also tested, for example about 10 seconds, about 20 seconds, about 40 seconds, or about 60 seconds.
# [3] = Intensity and duration of fluorescence of diluted probes bound to caries; conditions: deep and shallow lesions
# Experimental: as §1
# [4] = cited from earlier work
# [5] = Hydrogen peroxide removal of OsteoSense 750 from five teeth having caries, absorbance at 750 nm; conditions: teeth A to E
Structure (SMILES),known toxicity [1],optical signal of early stage caries lesion with bound probe (photograph) [2],other results
C=Cc1c(C)c2cc3nc(c4c5[n-]c(cc6nc(cc1[n-]2)C(C)=C6CC)c(C)c5C(=O)[C@@H]4C(=O)OC)[C@@H](CCC(=O)OC/C=C(\C)CCC[C@H](C)CCC[C@H](C)CCCC(C)C)[C@@H]3C.[Mg+2] [Chlorophyll A],no known toxicity,Fluorescence of an early stage caries lesion was observed,"interproximal caries observed with probe ([2]; excitation light, emission detected, FIG. 9): Interproximal caries were observed"
CCN1C(=CC=CC=CC=CC2=[N+](CCCCCC(=O)O)c3ccc(S(=O)(=O)O)cc3C2(C)C)C(C)(C)c2cc(S(=O)(=O)[O-])ccc21 [Cy7],–,–,fluorescent intensity compared to IR820 (ICG) ([3]; 1:10 and 1:100 dilutions): greater fluorescent intensity at each concentration and lesion depth compared to IR820 (ICG); retained fluorescence intensity compared to CardioGreen (ICG) ([3]; diluted 1:10): retained much greater intensity in both deep and shallow lesions compared to images of CardioGreen (ICG) diluted 1:10
COc1cccc2c1C(=O)c1c(O)c3c(c(O)c1C2=O)C[C@@](O)(C(=O)CO)C[C@@H]3O[C@H]1C[C@H](N)[C@H](O)[C@H](C)O1 [Doxorubicin],–,Fluorescence of an early stage caries lesion was observed,–
C1=Cc2cc3ccc(cc4nc(cc5ccc(cc1n2)[nH]5)C=C4)[nH]3 [Porphyrin],no known toxicity,Fluorescence of an early stage caries lesion was observed,–
Cc1cc2nc3c(=O)[nH]c(=O)nc-3n(C[C@H](O)[C@H](O)[C@H](O)CO)c2cc1C [Riboflavin],–,–,water solubility [4]: water soluble
OO [hydrogen peroxide],–,–,% OsteoSense 750 removed (g) [5]: 80% and 93% and 88%

# Source: patent US8647119B1, “Methods and kits with fluorescent probes for caries detection” (President and Fellows of Harvard College, priority 2006, dated 2014)
